Laboratory results reported in US6338963B1, “Use of carbon monoxide dependent guanylyl cyclase modifiers to stimulate neuritogenesis” (NeoTherapeutics, Inc., priority 1994, dated 2002).
Marks after values point to notes of the source that are not given here.

Tests used:
[1] = system: cGMP levels in PC12 cells; assay: cGMP levels in PC12 cells (radioimmunoassay); assay type: cell-based, rat; conditions: NGF-primed PC12 cells
Procedure: Initially, PC-12 cells were primed with 40 ng/ml NGF for 3 days in low serum medium (1.5% horse serum+5% fetal calf serum). Cells were seeded onto assay plates in low serum medium containing 40 ng/ml NGF and incubated for 1 hour. The medium was changed to low arginine medium (80 μM) with no serum and NGF and papaverine ([…]) where indicated. Test compounds were added for the indicated time and the reaction was stopped by adding 5% TCA containing 10,000 dpm of ^3H-cGMP. cGMP was assayed by the radioimmunoassay method of Maurice (Mol. Pharmacol. 37: 671-681, 1990). TCA was purified by adding powdered charcoal (5 g) and filtering the mixture through Whatman #1 paper. This removed contaminants in the TCA that otherwise interfere with the radioimmunoassay (RIA) of cGMP.
It was necessary to purify the cGMP from cAMP and other contaminants before radioimmunoassay since these other materials can interfere with the assay. Briefly, the TCA solution was applied to Dowex columns (50W-8X, 200-400 mesh) and eluted. A neutral alumina column was then placed under each Dowex column. The cGMP was eluted from the Dowex columns into neutral alumina columns by adding 4 mL of 0.05 M HCl to each Dowex column. The neutral alumina columns were then sequentially rinsed with 2 ml of HCl, 4 mL water and finally with 0.2 M sodium acetate (pH 6.2). The cGMP collected for the RIA eluted in 1 ML of sodium acetate with a recovery between 50-65%. The cGMP was assayed using a Dupont RIA kit.

[2] = system: cultured neurons from rat cerebral cortex; assay: NMDA-induced toxicity in cultured rat cortical neurons, astrocyte conditioned medium; assay type: cell-based
Procedure: In these experiments, cultured neurons were prepared from rat cerebral cortex. In these cultures the NMDA pulse (100 μM for 10 min) provoked about 80% neuronal death (measured by Trypan blue cell staining or LDH activity). Separately, cultured astrocytes were treated for 6 hours with AIT-082. Then, the medium containing the drug was replaced with fresh medium without the drug and the astrocyte cultures were maintained in this medium for the next 24 hours. This medium represented the CM and was added to neurons soon after the toxic pulse with NMDA. The addition of CM partly counteracted the toxic effects caused by NMDA, reducing the neuronal damage by about 50%. If the medium was boiled for 20 min at 100° C. prior to addition to NMDA-damaged neurons, it completely lost the protective activity. […] To verify whether the neuroprotection caused by AIT-082 was ascribable to the production of TGFβ2 or NGF, antibodies to TGFβ2 or to NGF (100 ng/ml) were added together with CM.
Conversely, when DPCPX (100 nm) was added to astrocyte cultures together with AIT-082, the neuroprotective effect of the resulting CM deriving from the culture of the astrocytes with AIT-082 was reduced by only 20%, as compared to the neuroprotective effect of CM derived from astrocytes exposed to AIT-082 alone (assumed as equal to 100%).

[3] = system: NGF; assay: NGF release from rat cultured astrocytes (ELISA); assay type: cell-based; conditions: for effect of inhibitor on AIT-082-induced accumulation of NGF: 100 nm wortmannin, 10 μM PD098,059 or 500 ng/ml CHX added 30 min before and kept 24 hours with 100 μM AIT-082
Procedure: The dose response for AIT-082 and guanosine on nerve growth factor and S100β protein release from rat culture astrocytes is shown in FIG. 30. NGF was assayed by a double-site ELISA, using a monoclonal anti-NGF antibody, coupled or not to β-galactosidase according to the method of I. D. Laviada et al., “Phosphatidylcholine-Phospholipase C Mediates the Induction of Nerve Growth Factor in Cultured Glial Cells,” FEBS Lett. 364: 301-304 (1995).
(§1) The NGF and S100β protein were measured by removing the cultured medium for the ELISA assays at each indicated time point.
(§2) NGF and TGFβ2 levels were assayed in the culture medium of the astrocytes by specific ELISA assays using kits from Roche (Germany) and Promega (USA) respectively. NGF basal levels were 56.3±3.2 pg/ml. TGFβ2 levels were 9.1±0.06 pg/ml.
(§3) In FIG. 61, the dose-response curves of NGF and TGFβ2 release from rat cultured astrocytes as the result of exposure to AIT-082 are shown.

[4] = system: TGFβ2; assay: TGFβ2 release from rat cultured astrocytes (ELISA); assay type: cell-based; conditions: 100 nm wortmannin, 10 μM PD098,059 or 500 ng/ml CHX added 30 min before and kept 24 hours with 100 μM AIT-082
Procedure: as §2, §3

[5] = system: S100β protein; assay: S100β protein release from rat cultured astrocytes (ELISA); assay type: cell-based; conditions: cycloheximide 0.5 μg/ml, AIT-082 100 μ
Procedure: The S100β protein was measured by using an ELISA as described in A. Aurell et al., “The S-100 Protein in Cerebrospinal Fluid: A Simple ELISA Method,” J.Neurol. Sci. 89: 157-164 (1989).
as §1

[6] = system: Swiss Webster mice; assay: Win-shift T-maze memory test, Swiss Webster mice; assay type: in vivo; conditions: 90-second inter-trial interval, PHY 0.125 mg/kg i.p.
Procedure: Male Swiss Webster mice six months (young adult) and eleven months (old) of age, obtained from the National Institute on Aging, were maintained in individual cages, on a […] light/dark cycle with continuous access to water. Food was limited so that the mice stabilized at 80% of free feeding weight. Mice were weighed and handled daily for one week. The win-shift model was run as described in the literature and consists of a T-maze in which the correct response alternates after each correct trial. The interval between trials is varied and allows for the determination of the longest period between trials that a subject can remember the correct response on the previous trial. This allows the measure of the duration of the memory trace. […] The reward goal box is alternated after each correct trial. Ten trials per mouse are run each day. […] The latency time to leave the start box is recorded as a measure of motivation, the running time (the time from leaving the start box to reaching the goal box) is recorded as a measure of performance, and the number of correct responses as a measure of memory.
The drugs used in this example are 4-((3-(1,6-dihydro-6-oxo-9-purin-9-yl)-1-oxopropyl)amino) benzoic acid (AIT-082), as an exemplary potassium salt, tacrine hydrochloride (tetrahydroaminoacridine, THA, Sigma Chemical Co., St. Louis, Mo.), and physostigmine, hemisulfate salt (PHY, Sigma Chemical Co., St. Louis, Mo.). The drugs were dissolved in saline and prepared fresh daily. All injections were made at a volume of 0.1 ml/10 grams body weight. When testing drug effects, intraperitoneal (i.p.) injections of AIT-082 or THA were made one hour prior to the start of testing. Due to its shorter duration of action, PHY was injected 30 minutes prior to testing. Control subjects receive a similar injection of saline (vehicle).
(§4) To determine the duration of the memory trace, subjects were administered drug or saline and 30 minutes (PHY) or 1 hour (AIT-082 or THA) later they were given a single reference run with the milk reward in both goal boxes. After the indicated inter-trial delay, subjects were returned to the start box and given the first test trial with the milk reward only in the goal box opposite to the one entered on the previous correct trial. The subjects were given 10 trials with the reward alternating only after correct responses.
To determine if tolerance to the biological effects of AIT-082 developed, drug or saline was administered daily for 18 days prior to the testing in the standard win-shift paradigm.

[7] = system: C57BL/6 mice; assay: Win-shift duration of memory trace, C57BL/6 mice; assay type: in vivo; conditions: for Correct (Mean score ± S.E.) / No. above chance/Total #: Physostigmine 0.125 mg/kg
Procedure: as §4
Previous work has established that normal adult Swiss Webster mice have a memory trace duration of 60 seconds in the win-shift paradigm which may be increased by the administration of AIT-082.

[8] = system: Swiss Webster mice; assay: Win-shift test, Swiss Webster mice with age-induced memory deficits; assay type: in vivo; conditions: PHY 0.125 mg/kg
Procedure: Twelve-month old male Swiss Webster mice were screened for performance in the win-shift foraging test. Subjects were tested at various time delays, beginning at 10 seconds and increasing the inter-trial time interval to 30, 60, 90 and 120 seconds.
Subjects with severe impairment could not remember the correct response at 10 seconds while subjects with mild deficit could remember the correct response with a 30 second inter-trial interval but not at 60 seconds. Subjects with a moderate deficit could remember the correct response with a 10 second inter-trial interval but not […] at 30 seconds. Thus, the win-shift model can detect age-induced impairments in working memory. As will be appreciated by those skilled in the art, this observation is important since it provides the ability to use age-matched subjects with varying degrees of impairment for evaluation of potential therapeutic agents.
Following the establishment of a baseline, six subjects in each of the three groups were treated with AIT-82 (30 mg/kg, one hour before testing) or physostigmine (0.125 mg/kg, 30 minutes before testing) using the win-shift foraging test. The results are presented in Table L directly below and graphically represented in FIG. 9.

[9] = system: C57BL/6 mice; assay: Win-shift test, C57BL/6 mice with age-induced memory deficits; assay type: in vivo; conditions: for subjects performing significantly above chance/total number of subjects: PHY 0.125 mg/kg
Procedure: Twelve-month old male C57BL/6 mice were screened for performance in the win-shift foraging test. Subjects were tested at various inter-trial time intervals. Subjects who could not perform to criteria (>60% correct) at 10 seconds delay were classified as having a severe deficit. Subjects who performed to criteria at 10 seconds but not at 30 seconds were classified as having a moderate degree of deficit and subjects who performed to criteria at 30 seconds but not at 60 seconds were classified as having mild deficit. As in Example 21, subjects in each group were treated with either AIT-082 or PHY to determine the extent to which the working memory trace was prolonged. The results are presented in Table M directly below and graphically represented in FIG. 10.

[10] = Moderate deficit, interval 30 sec
[11] = Moderate deficit, interval 60 sec
[12] = Severe deficit, interval <10 sec

Q: `CNc1ccc2oc(C[C@H]3O[C@@]4(CC[C@H]3C)O[C@H]([C@H](C)C(=O)c3ccc[nH]3)[C@H](C)C[C@H]4C)nc2c1C(=O)O` [A23187, reference compound] was tested. Which “cGMP in PC12 cells” value [1] did it give?
A: Its value is “failed to elicit an increase in cGMP”.

Q: For `CCCn1c(=O)c2[nH]c(C3CCCC3)nc2n(CCC)c1=O` [DPCPX, 8-cyclopentyl-1,3-dipropylxanthine], which “reduction of neuroprotective effect of resulting CM” value ([2]; DPCPX 100 nm added to astrocyte cultures together with AIT-082) is on record?
A: Its value is 20%.

Q: And the “effect on neuroprotective effect of astrocyte-derived CM” value ([2]; DPCPX 100 nm added with CM to injured cortical neurons)?
A: Its value is “did not modify the neuroprotective effect”.

Q: Which “effect of inhibitor on AIT-082-induced accumulation of NGF” value [3] does the source give for `COc1cccc(-c2cc(=O)c3ccccc3o2)c1N` [PD098,059, reference compound] here?
A: Its value is “partly inhibited”.

Q: What about the “effect of inhibitor on AIT-082-induced accumulation of TGFβ2” value [4] of the same compound?
A: Its value is “partly inhibited”.

Q: How did the “effect of inhibitor on AIT-082-induced accumulation of NGF” value [3] turn out when `C[C@@H]1C[C@@H]([C@H](O)CC2CC(=O)NC(=O)C2)C(=O)[C@@H](C)C1` [cycloheximide, reference compound] was run?
A: Its value is “partly inhibited”.

Q: What about the “effect of cycloheximide on AIT-082-evoked release of NGF” value ([3]; cycloheximide 0.5 μg/ml, AIT-082 100 μ) of the same compound?
A: The value was “abolished the stimulatory effect of AIT-082”.

Q: What about the “effect of cycloheximide on AIT-082-evoked accumulation of S100β protein” value [5] of the same compound?
A: The value was “only slightly modified”.

Q: What about the “effect of inhibitor on AIT-082-induced accumulation of TGFβ2” value [4] of the same compound?
A: Its value is “partly inhibited”.

Q: Which results are given for “physostigmine, hemisulfate salt [reference compound]”?
A: Win-shift Memory Test, Correct responses [6]: 6.5 Correct responses/10 trials; Correct (Mean score ± S.E.) ([7]; inter-trial interval 180 sec): 65 ± 16; No. above chance/Total # ([7]; inter-trial interval 180 sec): 3/6; Correct (Mean score ± S.E.) ([7]; inter-trial interval 210 sec): 53 ± 9; No. above chance/Total # ([7]; inter-trial interval 210 sec): 1/6; duration of the memory trace ([7]; physostigmine, untreated 120 seconds): 180 s; subjects performing significantly above chance/total number of subjects ([8]; Mild deficit, interval 60 sec): 5/6*; subjects performing significantly above chance/total number of subjects ([8]; Mild deficit, interval 90 sec): 3/6; subjects performing significantly above chance/total number of subjects ([8]; Mild deficit, interval 120 sec): 2/6; subjects performing significantly above chance/total number of subjects ([8]; Mild deficit, interval 150 sec): 2/6; subjects performing significantly above chance/total number of subjects ([8]; Mild deficit, interval 180 sec): 1/6; subjects performing significantly above chance/total number of subjects ([8]; Mild deficit, interval 210 sec): 0/6; subjects performing significantly above chance/total number of subjects [8, 10]: 1/6; subjects performing significantly above chance/total number of subjects [8, 11]: 0/6; subjects performing significantly above chance/total number of subjects [8, 12]: 0/6; subjects performing significantly above chance/total number of subjects ([9]; Mild deficit, interval 60 sec): 7/8*; subjects performing significantly above chance/total number of subjects ([9]; Mild deficit, interval 90 sec): 3/8; subjects performing significantly above chance/total number of subjects ([9]; Mild deficit, interval 120 sec): 2/8; subjects performing significantly above chance/total number of subjects ([9]; Mild deficit, interval 150 sec): 2/8; subjects performing significantly above chance/total number of subjects ([9]; Mild deficit, interval 180 sec): 2/8; subjects performing significantly above chance/total number of subjects ([9]; Mild deficit, interval 210 sec): 0/8; subjects performing significantly above chance/total number of subjects ([9]; Moderate deficit, interval 10 sec): 6/6; subjects performing significantly above chance/total number of subjects [9, 10]: 1/6; subjects performing significantly above chance/total number of subjects [9, 11]: 0/6; subjects performing significantly above chance/total number of subjects [9, 12]: 0/6; prolongation of memory ([9]; moderate deficit group, PHY): ineffective in the moderate group
